Source: patent US7531482B2, “Thieno-pyrimidine compounds having fungicidal activity” (Dow AgroSciences LLC, priority 2005, dated 2009)

Key:
Assay type in all cases: in vivo
Colletotricum lagenarium = assay: Cucumber Anthracnose (COLLLA) whole-plant disease control test; conditions: Cucumis sativus, foliar; 200 ppm applied to foliage of cucumber; inoculated one day after treatment; read-out: COLLLA disease control
Erysiphe cichoracaerum = assay: Cucumber Powdery Mildew (ERYSCI) whole-plant disease control test; conditions: Erysiphe, foliar; 200 ppm applied to foliage of cucumber; inoculated one day after treatment; read-out: ERYSCI disease control
Leptosphaeria nodorum = assay: Glume Blotch of Wheat (LEPTNO) whole-plant disease control test; conditions: Parastagonospora nodorum, foliar; for pest or weed control at 200 ppm: 200 ppm applied to foliage of wheat, inoculated one day after treatment, read-out: LEPTNO disease control; for pest or weed control at 75 ppm: 75 ppm (footnote b), wheat foliage
Phytophthora infestans = assay: whole plant or invertebrate; conditions: inoculated one day after treatment; for pest or weed control at 200 ppm: Phytophthora infestans, in Solanum lycopersicum, foliar, read-out: PHYTIN disease control, 200 ppm applied to foliage of tomato
[1] = tested on: Puccinia recondita tritici; assay: Leaf Rust of Wheat (PUCCRT) whole-plant disease control test; conditions: 200 ppm applied to foliage of wheat, inoculated one day after treatment; for pest or weed control at 200 ppm: Puccinia recondita, foliar, read-out: PUCCRT disease control
[2] = tested on: Magnaporthe grisea=Pyricularia oryzae; assay: whole plant or invertebrate; conditions: for pest or weed control at 8.3 ppm / pest or weed control at 200 ppm: Pyricularia oryzae, foliar; for pest or weed control at 8.3 ppm: read-out: PYRIOR disease control, 8.3 ppm (footnote c), rice foliage; for pest or weed control at 200 ppm: read-out: PYRIOR disease control, 200 ppm applied to foliage of rice
[3] = tested on: Mycosphaerella graminicola=Septoria tritici; assay: Speckled Leaf Blotch of Wheat (SEPTTR) whole-plant disease control test; conditions: 75 ppm applied to foliage of wheat; for pest or weed control at 75 ppm: Mycosphaerella, foliar, read-out: SEPTTR disease control
[4] = inoculated one day after treatment

Structure (SMILES) | pest or weed control at 200 ppm (Colletotricum lagenarium) | pest or weed control at 200 ppm (Erysiphe cichoracaerum) | pest or weed control at 200 ppm (Leptosphaeria nodorum) | PHYTIN disease control (Phytophthora infestans; 200 ppm applied to foliage of tomato) | PUCCRT disease control [1] | PYRIOR disease control ([2]; 200 ppm applied to foliage of rice, inoculated one day after treatment) | SEPTTR disease control [3] | pest or weed control at 75 ppm (Leptosphaeria nodorum) | pest or weed control at 200 ppm (Phytophthora infestans) | pest or weed control at 200 ppm [1] | pest or weed control at 8.3 ppm [2] | pest or weed control at 75 ppm [3] | pest or weed control at 200 ppm [2, 4]
Clc1csc2ncnc(NCCc3ccc(Oc4ncnc5scc(Cl)c45)cc3)c12 [Compound 108] | 0 to 49% | 0 to 49% | 0 to 49% | * (* = 0–49 percent control) | * (* = 0–49 percent control) | ** (** = 50–79 percent control) | ** (** = 50–79 percent control) |  |  |  |  |  | 
Fc1nc(F)c(F)c(Oc2ccc(CCNc3ncnc4scc(Cl)c34)cc2)c1F [Compound 110] | 50 to 79% | 80 to 100% |  |  |  |  |  | 50 to 79% | 0 to 49% | 80 to 100% | 80 to 100% | 50 to 79% | 
Clc1csc2ncnc(NCCc3ccc(Oc4nc(Br)ns4)cc3)c12 [Compound 112] | 50 to 79% | 0 to 49% | 0 to 49% |  |  |  |  |  | 50 to 79% | 80 to 100% |  | 0 to 49% | 80 to 100%
Cc1nnsc1Oc1ccc(CCNc2ncnc3scc(Cl)c23)cc1 [Compound 114] | 50 to 79% | 80 to 100% | 50 to 79% |  |  |  |  |  | 80 to 100% | 80 to 100% |  | 50 to 79% | 80 to 100%
Clc1nsc(Oc2ccc(CCNc3ncnc4scc(Cl)c34)cc2)n1 [Compound 120] | 0 to 49% | 0 to 49% |  |  |  |  |  | 0 to 49% | 50 to 79% | 80 to 100% | 50 to 79% | 0 to 49% | 
COc1nsc(Oc2ccc(CCNc3ncnc4scc(Cl)c34)cc2)n1 [Compound 122] | 50 to 79% | 80 to 100% |  |  |  |  |  | 0 to 49% | 50 to 79% | 80 to 100% | 80 to 100% | 50 to 79% | 
COc1cc(CCNc2ncnc3scc(Cl)c23)ccc1Oc1cc(C(F)(F)F)ccn1 [Compound 124, (5-Chlorothieno[2,3-d]pyrimidin-4-yl)-{2-[3-methoxy-4-(4-trifluoromethylpyridin-2-yloxy)phenyl]ethyl}amine] | 50 to 79% | 80 to 100% |  |  |  |  |  | 0 to 49% | 50 to 79% | 80 to 100% | 80 to 100% | 0 to 49% | 
N#Cc1nccnc1Oc1ccc(CCNc2ncnc3scc(Cl)c23)cc1 [Compound 125] | 0 to 49% | 50 to 79% |  |  |  |  |  | 0 to 49% | 50 to 79% | 80 to 100% | 80 to 100% | 50 to 79% | 
